The results in this text go back to ChEMBL document CHEMBL1201862, “PubChem BioAssay data set” (2004).

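Protocol summary: plate cells (96-well), add compound at 5 concentrations, incubate 48 h, interpolate endpoints linearly. Here, GI50 denotes the concentration required for 50% inhibition of growth.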 Calls of active or inactive are those of the source. Cut-off read from the data, not from the text of the source: active = GI50 up to about 1.1 µM and inactive = higher.

Among the test systems are SF-295; MOLT-4; SW-620; NCI-H23; CCRF-CEM; KM12; NCI-H460; DU-145; EKVX; HCC 2998; NCI-H522; MCF7; OVCAR-5; UACC-62; NCI-H226; A549; ACHN; HOP-62; BT-549; SNB-19.
Common to all, as to assay: NCI-60 cell line screen, 48 h

As for `CC(C)=CC(Cc1ccccc1)S(=O)(=O)c1nc2ccccc2s1` (stereo not given), the GI50 is 26.6 µM (inactive) in the assay with SF-295; 2.98 µM (inactive) with MOLT-4; 18.7 µM (inactive) in the assay with SW-620; 13.5 µM (inactive) in the assay on NCI-H23; 2.37 µM (inactive) with CCRF-CEM; 18.7 µM (inactive) in the assay with KM12. The GI50 was 21.3 µM (inactive) with NCI-H460; 17.7 µM (inactive) with DU-145; 19.6 µM (inactive) in the assay with EKVX; 19.2 µM (inactive) with HCC 2998; 11.3 µM (inactive) with NCI-H522; 14.7 µM (inactive) with MCF7. For the same compound, the GI50 in the assay with OVCAR-5 is 19.2 µM (inactive); in the assay on UACC-62, 17.2 µM (inactive); in the assay on NCI-H226, 13.3 µM (inactive); in the assay with A549, 23.4 µM (inactive); with ACHN, 18.8 µM (inactive); in the assay with HOP-62, 28.8 µM (inactive). In addition, the results for the GI50 in the assay with BT-549 and in the assay on SNB-19 were 14.6 µM (inactive) and 17.4 µM (inactive), respectively.

Turning to `CCOC(=O)CN1C(=O)c2c(NC(=O)C(=O)O)cccc2S1(=O)=O`, the GI50 in the assay with SF-295, with MOLT-4, in the assay with SW-620, with NCI-H23, in the assay on CCRF-CEM and in the assay with KM12 was > 100 µM (inactive) in each case. For the same compound, the GI50 with NCI-H460, with DU-145, in the assay with EKVX, in the assay on HCC 2998, with NCI-H522 and in the assay on MCF7 was > 100 µM (inactive) each time. In addition, the GI50 in the assay with OVCAR-5, in the assay on UACC-62, in the assay on NCI-H226, in the assay on A549, in the assay with ACHN and with HOP-62 was > 100 µM (inactive) each time. Further, the GI50 with BT-549 and with SNB-19 was > 100 µM (inactive) throughout.

On to `COC1(OC)C2C=CC1C([C@](C)(N)CO)C2` (stereo not given in full), for which the GI50 in the assay with SF-295, with MOLT-4, with SW-620, in the assay with NCI-H23, in the assay with CCRF-CEM and in the assay with KM12 was > 100 µM (inactive) in each case. Also, the GI50 with NCI-H460, in the assay with DU-145, in the assay with EKVX, in the assay with HCC 2998, in the assay on NCI-H522 and with MCF7 was > 100 µM (inactive) in each case. Further, the GI50 in the assay with OVCAR-5, with UACC-62, in the assay with NCI-H226, in the assay with A549, in the assay on ACHN and with HOP-62 was > 100 µM (inactive) throughout. The GI50 in the assay with BT-549 and with SNB-19 was > 100 µM (inactive) each time.

On to `c1ccc(C(c2cccc3c2ccc2ccccc23)C(c2ccccc2)c2cccc3c2ccc2ccccc23)cc1` (stereo not given), for which the GI50 in the assay on SF-295, in the assay on MOLT-4, in the assay on SW-620, in the assay on NCI-H23, in the assay on CCRF-CEM and in the assay on KM12 was > 100 µM (inactive) each time. Moreover, the GI50 in the assay with NCI-H460, in the assay with DU-145, with EKVX, in the assay on HCC 2998, with NCI-H522 and in the assay on MCF7 was > 100 µM (inactive) throughout. For the same compound, the GI50 with OVCAR-5, with UACC-62, in the assay on NCI-H226, in the assay with A549, with ACHN and in the assay on HOP-62 was > 100 µM (inactive) in each case. The GI50 with BT-549 and in the assay on SNB-19 was > 100 µM (inactive) each time.

For the compound `COc1ccc(C(=O)CCN(C)C)c2ccccc12`, the GI50 is > 100 µM (inactive) with SF-295; 17.9 µM (inactive) in the assay with MOLT-4; 18 µM (inactive) in the assay with SW-620; 20.8 µM (inactive) with NCI-H23; 2.79 µM (inactive) in the assay on CCRF-CEM; 19.5 µM (inactive) in the assay with KM12. Further, the GI50 in the assay with NCI-H460 was > 59.8 µM (inactive); in the assay on DU-145, 28.2 µM (inactive); in the assay on EKVX it was 24.7 µM (inactive); in the assay with HCC 2998, 18 µM (inactive); with NCI-H522, 5.21 µM (inactive); with MCF7, 4.63 µM (inactive). Moreover, the GI50 was 55.6 µM (inactive) in the assay on OVCAR-5; > 41.4 µM (inactive) with UACC-62; > 100 µM (inactive) in the assay with NCI-H226; > 58.2 µM (inactive) in the assay with A549; 18.3 µM (inactive) in the assay with ACHN; 24.1 µM (inactive) with HOP-62. For the same compound, the GI50 in the assay on BT-549 was 19.3 µM (inactive); in the assay on SNB-19, > 93.5 µM (inactive).

With `COCN1C(=O)[C@@H]2CCCN2C(=O)c2ccc(N)cc21`, the GI50 in the assay with SF-295, in the assay with MOLT-4, with SW-620, in the assay with NCI-H23, in the assay on CCRF-CEM and in the assay on KM12 was > 100 µM (inactive) throughout. Further, the GI50 in the assay on NCI-H460, in the assay on DU-145, in the assay on EKVX, with HCC 2998, in the assay with NCI-H522 and with MCF7 was > 100 µM (inactive) throughout. The GI50 with OVCAR-5, in the assay on UACC-62, in the assay with NCI-H226, with A549, in the assay on ACHN and in the assay on HOP-62 was > 100 µM (inactive) in each case. In addition, the GI50 in the assay with BT-549 and in the assay on SNB-19 was > 100 µM (inactive) throughout.

For `CN(C)/C=N/S(=O)(=O)c1nn2c(C=O)c(-c3cc4ccccc4oc3=O)nc2s1`, the GI50 in the assay with SF-295 was > 44.1 µM (inactive); in the assay on MOLT-4, 1.89 µM (inactive); in the assay on SW-620 it was 2.18 µM (inactive); in the assay on NCI-H23, 9.68 µM (inactive); in the assay with CCRF-CEM, 0.276 µM (active); in the assay with KM12 it was 12.1 µM (inactive). For the same compound, the GI50 in the assay with NCI-H460 was 19.3 µM (inactive); in the assay with DU-145, 5.56 µM (inactive); in the assay with EKVX, 10.4 µM (inactive); in the assay on HCC 2998 it was 19.5 µM (inactive); in the assay with NCI-H522 it was 1.16 µM (inactive); in the assay on MCF7, 3.54 µM (inactive). For the same compound, the GI50 with OVCAR-5 was 14.6 µM (inactive); with UACC-62, 7.28 µM (inactive); in the assay on NCI-H226, 15.2 µM (inactive); in the assay on A549 it was 13 µM (inactive); in the assay with ACHN, 1.77 µM (inactive); with HOP-62, > 30.2 µM (inactive). Besides, the GI50 in the assay with BT-549 was 8.65 µM (inactive); in the assay on SNB-19, 39.4 µM (inactive).

For `O=NN1CCNC1Cc1ccccc1` (stereo not given), the GI50 in the assay on SF-295 is 49 µM (inactive); in the assay on MOLT-4, 27 µM (inactive); in the assay on SW-620, > 100 µM (inactive); in the assay on NCI-H23, 72.1 µM (inactive); with CCRF-CEM it was 31.8 µM (inactive); in the assay on KM12, > 100 µM (inactive). Further, the GI50 in the assay with NCI-H460 is 38.7 µM (inactive); in the assay on DU-145 it was 50.9 µM (inactive); in the assay with EKVX it was > 100 µM (inactive); with HCC 2998 it was > 100 µM (inactive); with NCI-H522, 85.5 µM (inactive); in the assay with MCF7, 37.2 µM (inactive). The GI50 was > 100 µM (inactive) with OVCAR-5; 46.8 µM (inactive) with UACC-62; > 100 µM (inactive) with NCI-H226; > 100 µM (inactive) with A549; 37.6 µM (inactive) in the assay with ACHN; 58.5 µM (inactive) in the assay with HOP-62. Moreover, the GI50 in the assay on BT-549 was > 100 µM (inactive); in the assay on SNB-19, 35.3 µM (inactive).

Take `Nc1nc(SC/C=C/c2ccccc2)c2[nH]cnc2n1`: the GI50 in the assay with SF-295 was > 100 µM (inactive); with MOLT-4, > 100 µM (inactive); in the assay on SW-620 it was > 100 µM (inactive); in the assay with NCI-H23, > 100 µM (inactive); in the assay with CCRF-CEM it was 54.2 µM (inactive); in the assay on KM12, > 100 µM (inactive). Further, the GI50 with NCI-H460 was 72.1 µM (inactive); in the assay on DU-145, 94.2 µM (inactive); in the assay with EKVX, > 100 µM (inactive); with HCC 2998 it was > 100 µM (inactive); in the assay with NCI-H522, 19.5 µM (inactive); with MCF7, > 100 µM (inactive). Further, the GI50 is > 100 µM (inactive) with OVCAR-5; > 100 µM (inactive) in the assay on UACC-62; 35.2 µM (inactive) in the assay with NCI-H226; > 100 µM (inactive) with A549; 97.9 µM (inactive) in the assay with ACHN; 83.2 µM (inactive) in the assay with HOP-62. Further, the GI50 was 28.2 µM (inactive) in the assay on BT-549 and > 100 µM (inactive) in the assay with SNB-19.

On to `COc1ccc2oc(S(=O)(=O)N3CC(CCl)c4ccc(N)cc43)cc2c1` (stereo not given), for which the GI50 with SF-295 was 0.042 µM (active); in the assay with MOLT-4, 0.0652 µM (active); in the assay with SW-620, 0.0395 µM (active); in the assay with NCI-H23, 0.401 µM (active); in the assay on CCRF-CEM, 0.0385 µM (active); in the assay on KM12 it was 0.0228 µM (active). In addition, the GI50 with NCI-H460 was 0.0255 µM (active); with DU-145, 0.0767 µM (active); with EKVX, 0.084 µM (active); with HCC 2998 it was 0.118 µM (active); in the assay on NCI-H522 it was 0.0184 µM (active); in the assay on MCF7, 0.0253 µM (active). Also, the GI50 was > 19.3 µM (inactive) with OVCAR-5; 0.0246 µM (active) in the assay on UACC-62; 0.0412 µM (active) with NCI-H226; 0.0662 µM (active) with A549; 0.12 µM (active) in the assay on ACHN; 0.565 µM (active) in the assay on HOP-62. Further, the GI50 is 2.31 µM (inactive) in the assay on BT-549 and 0.0608 µM (active) in the assay on SNB-19.
